In patent US5239083A, “Indole derivatives which inhibit steroid 5α reductase” (Kyowa Hakko Kogyo Co., Ltd., priority 1991, dated 1993):

What was measured:
male dd mice = experiment: Acute Toxicity Test (oral, mice); type: in vivo; details: oral 300 mg/kg, mortality observed seven days after administration
Description: Test compounds (300 mg/kg) were orally administered to male dd mice weighing 20±1 g (each group consists of three animals). Minimum lethal dose (MLD) was determined by observing mortality seven days after the administration.

steroid 5α-reductase = experiment: Inhibition effects on steroid 5α-reductase activity (rat prostate enzyme, [4-14C]-testosterone); type: biochemical, male rats; details: pH 6.5, 37° C., 20 minutes
Description: The measurements of inhibition effects of test compounds on steroid 5α-reductase activity were performed according to the method described by Liang et al. [J. Biol. Chem., 259, 734 (1984)] as follows.
The prostates from male rats were homogenated in three tissue volumes of 20 mM sodium phosphate buffer (pH 6.5; containing 0.32M sucrose and 1 mM dithiothreitol). The homogenate was centrifuged at 140,000 X g for one hour. The precipitate was suspended in the buffer described above and the suspension was centrifuged at 140,000 X g for one hour. The precipitate was resuspended in the buffer described above and the solution (30-50 mg protein/ml) was used as enzyme in following assay.
[4-^14 C]-testosterone (1.5 nmol), NADPH (75 nmol), the enzyme (1 mg protein) and test compound in a total volume of 0.5 ml of 40 mM sodium phosphate buffer [pH 6.5, containing 1 mM dithiothreitol] was incubated at 37° C. After 20 minutes the enzyme activity was stopped by the addition of 2 ml of ethyl acetate. The mixture was then centrifuged at 1,000 g, for 5 minutes. The ethyl acetate layer was transferred to another tube and evaporated to dryness. The steroids were taken up in 50 μl of ethyl acetate and separated by thin layer chromatography (TLC) on silica gel in a developing solvent (ethyl acetate: cyclohexane=1:1). The radioactivity of testosterone and dihydrotestosterone on the TLC plate was measured by a TLC scanner.

Compound	Acute toxicity (MLD), minimum lethal dose (male dd mice) [mg/kg]	inhibition rate (%), 10^-7 M (steroid 5α-reductase) [%]
CCCC(c1ccccc1)n1ccc2cc(/C(C)=C/C(=O)Nc3ccccc3OCCCC(=O)O)ccc21 (stereo not drawn) [Compound 41, 4-{2-[3-[1-(α-propylbenzyl)indol-5-yl]isocrotonoylamino]phenoxy}butyric acid]	> 300	90
CCCCCn1ccc2cc(/C(C)=C/C(=O)Nc3ccccc3OCCCC(=O)O)ccc21 [Compound 6, 4-{2-[3-(1-pentylindol-5-yl)isocrotonoylamino]phenoxy}butyric acid]	> 300	81
CCCC(C)n1ccc2cc(/C(C)=C/C(=O)Nc3ccccc3OCCCC(=O)O)ccc21 (stereo not drawn) [Compound 16, 4-{2-[3-[1-(1-methylbutyl)indol-5-yl]isocrotonoylamino]phenoxy}butyric acid]	> 300	88
C/C(=C\C(=O)Nc1ccccc1OCCCC(=O)O)c1ccc2c(ccn2C(c2ccccc2)c2ccccc2)c1 [Compound 2, 4-{2-[3-(1-benzhydrylindol-5-yl)isocrotonoylamino]phenoxy}butyric acid]	> 300	95
C/C(=C\C(=O)Nc1ccccc1OCCCC(=O)O)c1ccc2c(ccn2C(c2ccccc2)c2ccccc2C)c1 (stereo not drawn) [Compound 52]	> 300	90
C/C(=C\C(=O)Nc1ccccc1OCCCC(=O)O)c1ccc2c(ccn2C(c2ccccc2)C(C)C)c1 (stereo not drawn) [Compound 44, 4-{2-[3-[1-[α-(2-methylethyl)benzyl]indol-5-yl]isocrotonoylamino]phenoxy}butyric acid]	> 300	78
C/C(=C\C(=O)Nc1ccccc1OCCCC(=O)O)c1ccc2c(ccn2C2CCCc3ccccc32)c1 (stereo not drawn) [Compound 45, 4-{2-[3-[1-(1,2,3,4-tetrahydro-1-naphthyl)indol-5-yl]isocrtonoylamino]phenoxy}butyric acid]	> 300	77
C/C(=C\C(=O)Nc1ccccc1OCCCC(=O)O)c1ccc2c(ccn2C(c2ccccc2)c2ccc(C)cc2)c1 (stereo not drawn) [Compound 53]	> 300	84
4-{2-[3-[1-(1-butylpentyl)indol-5-yl]isocrotonoyl amino]phenoxy}butyric acid [Compound 20]	> 300	79
